# Experimental data taken from paper PMC8637766, “A mixed chirality α-helix in a stapled bicyclic and a linear antimicrobial peptide revealed by X-ray crystallography” (RSC Chemical Biology, 2021).
# Square brackets hold non-standard residues; d marks the D form. Ends that are not written are not given here. Peptide text beside a SMILES is read from it. * marks the point of attachment. Benzoyl(4-Me) = Cc1ccc(C(=O)*)cc1
# Assays:
# [1] = test system: P. aeruginosa PAO1; format: cell-based, Pseudomonas aeruginosa
# Protocol: (§1) Bicyclic and linear peptides cytotoxicity was assayed against P. aeruginosa PAO1, P. aeruginosa ZEM-1A, P. aeruginosa ZEM9A, K. pneumoniae Oxa-48, E. coli W3110, A. baumannii BAL225, S. aureus Newman, S. aureus COL (clinical isolate of MRSA) , B. Subtilis BR151.
# (§2) To determine the Minimal Inhibitory Concentration (MIC), Broth Microdilution method was used . 2 A colony of bacteria from glycerol stock was grown in LB medium overnight at 37 °C and 180 rpm shaking. The compounds were prepared as stock solutions of 8 mg/mL in sterilized milliQ deionized water, added to the first well of 96 -well sterile, polypropylene round bottom microtiter plates (TPP, untreated) and diluted serially by ½. The concentration of the bacteria was quantified by measuring absorbance at 600 nm and diluted to an OD 600 of 0.022 in MH medium. The sample solutions (150 µL) were mixed with 4 µL diluted bacterial suspension with a final inoculation of about 5×10^5 CFU.
# (§3) For each test, two columns of the plate were kept for sterility control (MH medium only), growth control (MH medium with bacterial inoculum, no compound). The positive control, Polymyxin B (starting with a concentration of 64 µg/mL) in MH medium with bacterial inoculums, was introduced in the two first lines of the plate. The plates were incubated at 37 °C for ~18 hours under static conditions. 15 μL of 3-(4,5-dimethylthiazol-2-yl)-2,5-diphenyltetrazolium bromide (MTT)3 (1 mg/mL in sterilized milliQ deionized water) were added to each well and the plates were incubated for 20-30 minutes at room temperature. The minimal inhibitory concentration (MIC) was defined as the lowest concentration of the dendrimer that inhibits the visible growth of the tested bacteria (yellow) with the unaided eye.
# [2] = test system: P. aeruginosa ZEM-1A; format: cell-based, Pseudomonas aeruginosa
# Protocol: as §1, §2, §3
# [3] = test system: P. aeruginosa ZEM9A; format: cell-based, Pseudomonas aeruginosa
# Protocol: as §1, §2, §3
# [4] = test system: A. baumannii BAL225; format: cell-based
# Protocol: as §1, §2, §3
# [5] = test system: E. coli W3110; format: cell-based
# Protocol: as §1, §2, §3
# [6] = test system: K. pneumoniae Oxa-48; format: cell-based
# Protocol: as §1, §2, §3
# [7] = test system: S. aureus COL (clinical isolate of MRSA); format: cell-based
# Protocol: as §1, §2, §3
# [8] = test system: S. aureus Newman; format: cell-based
# Protocol: as §1, §2, §3
Compound,MIC PAO1 [1] [mg/L],MIC P. aeruginosa ZEM-1A [2] [mg/L],MIC P. aeruginosa ZEM9A [3] [mg/L],MIC A. baumannii BAL225 [4] [mg/L],MIC E. coli W3110 [5] [mg/L],MIC K. pneumoniae Oxa-48 [6] [mg/L],MIC S. aureus COL [7] [mg/L],MIC S. aureus Newman [8] [mg/L]
CSC[C@H](NC(=O)[C@@H](CCCCN)NC(=O)[C@H](CC(C)C)NC(=O)[C@H](CSC)NC(=O)[C@@H](CCCCN)NC(=O)[C@H](CC(C)C)NC(=O)[C@H](CC(C)C)NC(=O)[C@@H](CCCCN)NC(=O)[C@@H](CCCCN)NC(=O)c1ccc(C)cc1)C(=O)N[C@@H](CC(C)C)C(=O)N[C@@H](CC(C)C)C(N)=O [ln69b] ({Benzoyl(4-Me)}-[dK][dK]LL[dK]C(Me)L[dK]C(Me)LL-NH2),16,8,>32,8,8,>32,32,32
CSC[C@H](NC(=O)[C@H](CCCCN)NC(=O)[C@H](CC(C)C)NC(=O)[C@H](CSC)NC(=O)[C@H](CCCCN)NC(=O)[C@H](CC(C)C)NC(=O)[C@H](CC(C)C)NC(=O)[C@H](CCCCN)NC(=O)[C@H](CCCCN)NC(=O)c1ccc(C)cc1)C(=O)N[C@@H](CC(C)C)C(=O)N[C@@H](CC(C)C)C(N)=O [ln65b] ({Benzoyl(4-Me)}-KKLLKC(Me)LKC(Me)LL-NH2),4 to 8,4,16,4,8,8,4,4
KKLLKLLKLLL-NH2 [ln65],2 to 4,2 to 4,16,2 to 4,4,4,4,2 to 4
CC(C)C[C@H](NC(=O)[C@H](CC(C)C)NC(=O)[C@H](CC(C)C)NC(=O)[C@@H](CCCCN)NC(=O)[C@H](CC(C)C)NC(=O)[C@H](CC(C)C)NC(=O)[C@@H](CCCCN)NC(=O)[C@H](CC(C)C)NC(=O)[C@H](CC(C)C)NC(=O)[C@@H](CCCCN)NC(=O)[C@H](N)CCCCN)C(N)=O [ln69] (HELM PEPTIDE1{[dK].[dK].L.L.[dK].L.L.[dK].L.L.L.[am]}$$$$V2.0),8,8,>32,2 to 4,4,8,16,8
